Measurements as given in patent US11510980B2, “Brartemicin analogues” (VICTORIA LINK LTD, priority 2017, dated 2022).

Key:
[1] = tested on: OT-II CD4+ T-cells co-cultured with GM-CSF BMDMs; assay: BMDM / OT-II T-cell co-culture, OVA-specific IFN-γ and IL-17; assay type: cell-based, mice; conditions: 48 hours
Method: Cytokine analysis: IL-1β, IFN-γ, IL-6, TNF-α (BD Biosciences), IL-17, and MIP-2 (R&D) levels were determined via sandwich ELISA according to the manufacturer's instructions.
BMDC-OT-II T-cell co-cuture: A mixture of OT-II cells (1×10^5 cells/100 μL) and BMDCs (1×10^4 cells/100 μL) were stimulated with plate coated glycolipd (0.1 nmol/well) or iPrOH only (20 μL/well) and increasing concentrations of OVA (0, 0.1, or 1 μM). After 48 or 72 hours, the supernatant was collected and ELISA was employed to determine the levels of IFN-γ and IL-17.
To evaluate the potential of C18dMeBrar (9a) as a Th1/Th17 adjuvant, GM-CSF BMDMs and T-cells from OVA-specific OT-II TCR Tg mice were co-cultured on plates coated with TDM (0.01 nmol/well), TDB (0.01 nmol/well), or C18dMeBrar (9a, 0.01 nmol/well). The cells were stimulated with OVA (0, 0.1, and 1 μM), and after 48 hours, the supernatant was collected. Levels of the key Th1 cytokine IFN-γ, which is indicative of an enhanced host defence response, and the Th17 cytokine IL-17 were measured via ELISA (FIG. 3). […] Antigen-specific secretion of IFN-γ however, was not enhanced by treatment with 9a.

[2] = biological target: T1, hMincle-Ig (Homo sapiens, UniProt Q9ULY5); assay: In vitro Mincle binding assay (ELISA) with hMincle-Ig fusion protein; conditions: plate-coated ligand 0.1 nmol/well
T1 construct: using soluble Mincle-Ig fusion-proteins; made in house
T1 sequence (Q9ULY5 41-219 limits assumed): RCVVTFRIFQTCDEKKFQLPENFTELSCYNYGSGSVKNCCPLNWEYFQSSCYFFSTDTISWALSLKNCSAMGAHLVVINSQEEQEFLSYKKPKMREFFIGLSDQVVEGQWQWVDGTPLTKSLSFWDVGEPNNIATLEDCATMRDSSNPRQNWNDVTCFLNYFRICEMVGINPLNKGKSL
Method: (§1) Preparation of ligand-coated plates: Brartemicin analogues 9a-9i, TDM (Carbosynth, Sigma Aldrich), and TDB^14 were dissolved in CHCl3:MeOH (2:1, 1 mM), diluted in isopropanol ([…]) and added to 96-well plates (20 μL/well). The solvents were evaporated and the coated plates were used immediately.
(§2) In vitro Mincle binding assay: The preparation of mMincle- and hMincle-Ig fusion proteins have been previously described. Plate-coated glycolipids 9a-i, TDB, and TDM were incubated with hMincle-Ig, mMincle-Ig, or hIgG1-Fc (Ig) [3 μg/mL in binding buffer (20 mM Tris-HCl, 150 mM NaCl, 1 mM CaCl2), 2 mM MgCl2, pH 7.0)]. Detection of bound protein was achieved via incubation with anti-hIgG-HRP followed by the addition of a colorimetric substrate and measurement of OD at 450 nm. Background was accounted for by subtracting the hIgG1-Fc OD450 values from fusion protein OD450 values
(§3) The synthesised brartemicin analogues prepared in Example 1 were first tested for their ability to bind to both human and murine Mincle in an enzyme-linked immunosorbent assay (ELISA) using soluble Mincle-Ig fusion-proteins (FIG. 1a).

[3] = biological target: T2, mMincle+FcRγ (Mus musculus, UniProt Q9R0Q8); assay: 2B4-NFAT-GFP reporter cells expressing mMincle+FcRγ; assay type: cell-based, murine; conditions: ligand-coated plates 0.01, 0.1 or 1 nmol/well, 18 hours
T2 construct: expressed in transfected cells; host or cells: 2B4-NFAT-GFP reporter cells
T2 sequence (Q9R0Q8 1-214): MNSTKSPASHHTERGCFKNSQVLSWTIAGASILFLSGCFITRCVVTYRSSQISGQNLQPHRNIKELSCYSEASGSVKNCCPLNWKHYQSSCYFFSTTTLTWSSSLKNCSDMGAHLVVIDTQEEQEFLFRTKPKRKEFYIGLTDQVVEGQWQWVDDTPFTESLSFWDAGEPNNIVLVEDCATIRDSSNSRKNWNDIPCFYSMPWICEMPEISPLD
T2 sequence (P20491 19-86 partner): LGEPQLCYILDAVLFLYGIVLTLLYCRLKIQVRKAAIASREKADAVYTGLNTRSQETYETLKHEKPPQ
Method: as §1
2B4-NFAT-GFP reporter cells: 2B4-NFAT-GFP reporter cells expressing mMincle+FcRγ, hMincle+FcRγ, or FcRγ only have been previously described. […] The reporter cells were harvested, stained with propidium iodide, and analysed for NFAT-GFP expression using flow cytometry (FACS Calibur).
To determine whether the Mincle binding observed in Example 1 correlated with cellular activation, nuclear factor of activated T cells (NFAT)-green fluorescent protein (GFP) reporter cells expressing mMincle or hMincle coupled to FcRγ were stimulated using plates coated with TDM, TDB, brartemicin (9i), or analogues 9a-9h.
Activation of the reporter cells was measured through the production of GFP, which was monitored by flow cytometry (FIGS. 1b and 3c).
With the compounds 43a-h in hand, the ability of these analogues to bind and signal through Mincle was assessed (FIG. 5). Accordingly, NFAT-GFP reporter cells expressing mMincle+FcRγ, hMincle+FcRγ, or FcRγ-only were stimulated with the 2G-brartemicin analogues 43a-h, TDB, iPrOH, or the p-OC18H37 substituted analogue, 9f. Reporter cell activation was measured by the production of NFAT-GFP, which was analysed by flow cytometry.

[4] = biological target: T3, mMincle-Ig (Mus musculus, UniProt Q9R0Q8); assay: In vitro Mincle binding assay (ELISA) with mMincle-Ig fusion protein; set-up: species or system murine; conditions: plate-coated ligand 0.1 nmol/well
T3 construct: using soluble Mincle-Ig fusion-proteins; made in house
T3 sequence (Q9R0Q8 46-214 limits assumed): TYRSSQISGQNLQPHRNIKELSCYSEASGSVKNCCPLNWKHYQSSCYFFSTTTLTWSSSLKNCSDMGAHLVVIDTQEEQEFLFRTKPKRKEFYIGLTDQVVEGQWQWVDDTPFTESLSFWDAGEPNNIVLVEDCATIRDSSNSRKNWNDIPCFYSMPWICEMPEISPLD
Method: as §1, §2, §3

[5] = 0.01 nmol/well, OVA 0, 0.1 and 1 μM, ELISA

binding to hMincle-Ig (ELISA, OD at 450 nm) [2]: good binding | activation of mMincle NFAT-GFP reporter cells (GFP by flow cytometry) [3]: strongly activated | binding to mMincle-Ig (ELISA, OD at 450 nm) [4]: good binding
Substance: 6,6′-Di-O-(2-hydroxy-4-octabenzyloxybenzoyl)-α,α′-D-trehalose [9a]
OVA-specific production of IL-17 [1, 5]: significantly augmented | antigen-specific secretion of IFN-γ [1, 5]: not enhanced | adjuvant activity in vitro ([1]; 0.1 nmol/well, OVA323-339 peptide 0, 0.1 and 1 μM): displays adjuvant activity in vitro
